Experimental data from ChEMBL document CHEMBL1201862, “PubChem BioAssay data set” (2004).
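Compound exposure: 48 hours, 5 concentrations, 96-well plates. The concentration for 50% growth inhibition is given as GI50.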 The source made the active and inactive calls. Rule as the data show it: active = GI50 up to about 1.1 µM and inactive = higher.

How the values were obtained:
Experiment in all cases: DTP human tumour cell line panel, 48 h
[1] = system: MOLT-4
[2] = system: PC-3
[3] = system: BT-549
[4] = system: MCF7
[5] = system: OVCAR-8
[6] = system: MDA-N
[7] = system: SK-MEL-2
[8] = system: SK-MEL-28
[9] = system: MDA-MB-435
[10] = system: NCI/ADR-RES
[11] = system: CCRF-CEM
[12] = system: RXF 393
[13] = system: UACC-62
[14] = system: COLO 205
[15] = system: LOX IMVI
[16] = system: TK-10
[17] = system: SNB-19
[18] = system: ACHN
[19] = system: HCT-116
[20] = system: IGROV-1

Measured: GI50

Cc1ccc(S(=O)(=O)Nc2cc(O)nc3c2CCC3)cc1
inactive: [1] 42.9 µM | [2] > 100 µM | [3] > 100 µM | [4] > 100 µM | [5] > 100 µM | [6] > 100 µM | [7] > 100 µM | [8] > 100 µM | [9] > 100 µM | [10] > 100 µM | [11] > 100 µM | [12] > 100 µM | [13] > 100 µM | [14] > 100 µM | [15] > 100 µM | [16] > 100 µM | [17] > 100 µM | [18] > 100 µM | [19] > 100 µM | [20] > 100 µM

CC1=C(C(=O)OCc2ccncc2)C(C2=C(C)SCCS2)C(C(=O)OCc2ccncc2)=C(C)N1
inactive: [1] 15.3 µM | [2] 20.9 µM | [3] 20.4 µM | [4] 20.8 µM | [5] 26.4 µM | [6] 30.5 µM | [8] 16.8 µM | [9] 17.8 µM | [10] 37.4 µM | [11] 17.7 µM | [12] 12 µM | [13] 16.3 µM | [14] 22.2 µM | [15] 18.8 µM | [16] 40.8 µM | [17] 29.1 µM | [18] 34.5 µM | [19] 15.1 µM | [20] 62.5 µM

CC[N+]1(C)CCC(O)(c2ccc(C)cc2)C(C(=O)c2ccc(C)cc2)C1 (stereo not drawn)
inactive: [1] 23.6 µM | [2] > 100 µM | [3] > 100 µM | [4] 16.4 µM | [5] 34.2 µM | [6] > 100 µM | [7] > 100 µM | [9] 69.2 µM | [10] > 100 µM | [11] 22 µM | [12] 35.4 µM | [13] > 100 µM | [14] 25.5 µM | [16] 20.2 µM | [17] > 100 µM | [18] 23.3 µM | [19] 51.8 µM | [20] > 100 µM

O=C(Nc1nnc(-c2c(Cl)c(Cl)c(Cl)c(Cl)c2-c2nc3cc(C(=O)c4ccccc4)ccc3[nH]2)o1)c1ccc(Cl)cc1
inactive: [1] 13.6 µM | [2] 25.1 µM | [3] 41.9 µM | [4] 20.2 µM | [5] 39.2 µM | [6] 5.89 µM | [7] 29.6 µM | [8] 36.7 µM | [9] 6.31 µM | [10] 26.7 µM | [11] 6.27 µM | [12] 26.5 µM | [14] 15.5 µM | [15] 34.8 µM | [16] 51.9 µM | [17] 34 µM | [18] 30.7 µM | [19] 36.5 µM | [20] 29.2 µM

C=C(Cl)C(C)(Cl)CCC(Cl)C(C)(C)Cl (stereo not drawn)
inactive: [1] 23.9 µM | [2] 54.7 µM | [3] > 100 µM | [4] 37.8 µM | [6] 44.2 µM | [7] 27.2 µM | [8] > 100 µM | [9] 62.2 µM | [10] > 100 µM | [11] 30.3 µM | [12] 35.1 µM | [14] 44.8 µM | [15] 18.2 µM | [16] > 100 µM | [17] > 100 µM | [18] > 100 µM | [19] 35.1 µM | [20] 47.5 µM

CCn1ncc(Oc2c(Cl)cc(N)cc2Cl)c(Cl)c1=O
inactive: [2] 35.9 µM | [3] 25.6 µM | [4] 38.7 µM | [5] 56.5 µM | [6] 29.9 µM | [7] 34.6 µM | [8] 51.3 µM | [9] 29.1 µM | [10] 31 µM | [11] 83 µM | [12] 29 µM | [13] 39.5 µM | [14] 22.7 µM | [15] 32.9 µM | [16] 47.2 µM | [17] 33.4 µM | [18] 57.9 µM | [19] 30.4 µM | [20] 42.3 µM

CSC1=C(c2ccc(Cl)cc2)SC(N2CCCCC2)N1c1ccc([N+](=O)[O-])cc1 (stereo not drawn)
inactive: [1] 26 µM | [2] 18.5 µM | [3] 27.3 µM | [4] 35.6 µM | [5] 32.1 µM | [6] 39.4 µM | [7] 20.5 µM | [8] 38.8 µM | [9] 31.6 µM | [10] 26.7 µM | [11] 38.4 µM | [12] > 100 µM | [13] 17.5 µM | [14] 27.1 µM | [15] 30.6 µM | [16] 42.2 µM | [17] 28.8 µM | [18] 25.2 µM | [19] 23 µM | [20] 29.8 µM
